Patent publication US20230151101A1, “METHODS AND COMPOSITIONS TO ENHANCE HUMORAL IMMUNITY TO REDUCE CYTOMEGALOVIRUS INFECTION AND REACTIVATION BY IL-6 INHIBITION” (Fred Hutchinson Cancer Center, priority 2021, published 2023)

How the values were obtained:
Type in all cases: in vivo, human
[1] = system: HCMV; assay: phase I/II clinical trial of tocilizumab added to standard GVHD prophylaxis: HCMV reactivation vs historical cohort; settings: at risk BMT recipients; compared to non-randomized similarly transplanted historical cohort
Text: FIGS. 9A through 9C. IL-6 inhibition with tocilizumab is associated with low rates of significant CMV reactivation relative to historical controls. Human CMV (HCMV) viremia over time after bone marrow transplantation (BMT) in patients from (FIG. 9A) a phase I/II clinical trial of the addition of tocilizumab to standard graft versus host disease (GVHD) prophylaxis (left) or (FIG. 9B) a contemporaneous historical control cohort (right). FIG. 9C. Depiction of CMV reactivation > 600 versus < 600 copies/µL of plasma in the two patient cohorts.
(§1) Patients. Patients were enrolled in reported phase I/II (ACTRN12612000726853) or phase III (ACTRN12614000266662) clinical trials. The studies were approved by the Royal Brisbane and Womens Hospital institutional human ethics committee and all patients provided signed informed consent.
HCMV monitoring. CMV viral load was monitored using the COBAS® Amplicor CMV Monitor test (Roche Diagnostics, Basel, Switzerland) as previously described (Tey SK, Kennedy GA, Cromer D, Davenport MP, Walker S, Jones LI, et al. Clinical assessment of anti-viral CD8+ T cell immune monitoring using QuantiFERON-CMV® assay to identify high risk allogeneic hematopoietic stem cell transplant patients with CMV infection complications. PloS one. 2013, 8(10), e74744). […]

[2] = system: HCMV-specific IgG; assay: HCMV-specific IgG titers in plasma at day +30 after BMT (chemiluminescence, Diasorin Liaison XL)
Text: FIGS. 8A through 8C. IL-6 inhibition with tocilizumab is associated with the maintenance of human CMV (HCMV)-specific IgG. FIGS. 8A to 8C. Quantification of HCMV-specific IgG titers in plasma at day + 30 after bone marrow transplantation (BMT). FIG. 8A. D^-R^+ and D^+R^+ patients are classified into 3 groups based on HCMV reactivation (reactivation before day + 35, reactivation between day + 35 and + 100, no reactivation by day + 100) and respective HCMV-specific IgG titers are shown. FIG. 8B. HCMV-specific IgG in D^-R^+ and D^+R^+ patients are shown for tocilizumab (TCZ) versus placebo control (Ctrl) groups (left). The analysis for the subset of unrelated transplants is shown right. FIG. 8C. Titers of HCMV-specific IgG in D^+R^- patients are shown for TCZ versus placebo control groups. Dotted lines indicate detection limit of the HCMV-IgG assay (5 -180 U/mL).
Total and HCMV-specific IgG. The concentration of total IgG was determined with Enzyme-linked immunosorbent assay (Invitrogen) as per the manufacturer’s protocol. Quantification of HCMV IgG was conducted by Sullivan Nicolaides Pathology Queensland (Bowen Hills, QLD, Australia) using a chemiluminescence method on the Diasorin Liaison® XL platform. This semiquantitative method allows for a detection range of 5 - 180 Unit/mL.
Given the lack of effects of IL-6 inhibition on T and B cells, HCMV-specific IgG was quantified after BMT. […]

[3] = system: HCMV specific T cells; assay: HCMV-specific CD8+ T cells and T cell memory phenotype in PBMC at day +60 after BMT (flow cytometry)
Description: (§2) FIGS. 7A through 7G. […] Patients included for the evaluation of human CMV (HCMV) reactivation (as in FIG. 6) were analyzed for HCMV specific T cells and other immune subsets. A total of 50 PBMC samples at day + 60 after bone marrow transplantation (BMT) were identified based on availability of HCMV tetramers and peptides. FIG. 7A. Frequency of HCMV tetramer positive CD8^+ T cells in patients with or without HCMV reactivation. FIG. 7B. Frequency of cytokine (IFNy^+TNF^+) producing CD8^+ T cells following HCMV peptide stimulation in patients with or without HCMV reactivation. FIG. 7C. Frequency of HCMV tetramer positive CD8^+ T cells in patients receiving tocilizumab (TCZ) (n = 21) or placebo control (Ctrl) (n = 29). FIG. 7D. Frequency of cytokine (IFNv^+TNF^+) producing CD8^+ T cells in patients receiving TCZ or placebo. FIG. 7E. Memory phenotype for CD4^+ T cells in patients receiving TCZ or placebo. FIG. 7F. Memory phenotype for CD8^+ T cells in patients receiving TCZ or placebo. FIG. 7G. Proportions of naive B cells, mature B cells and plasmablasts in a subset of the above cohort (n = 19 for control and 17 for TCZ groups respectively). *P < 0.05.
Next the effect of IL-6 inhibition was investigated on donor T and B cell responses after BMT. Firstly, HCMV-specific CD8^+ T cells defined by HCMV-tetramer staining or cytokine production (IFNγ and/or TNF) were analyzed following HCMV peptide stimulation in conjunction with markers of T cell memory (CD45RA and CCR7). The inventors identified 50 PBMC samples at day + 60 after BMT based on availability of HCMV tetramers (and/or peptides). […] Within the subset of patients with HCMV reactivation, HCMV tetramer^+ cells were present at a lower frequency in patients with higher HCMV viremia (FIG. 7A right).

[4] = system: HCMV; assay: phase III randomized placebo-controlled trial: HCMV viremia and cumulative incidence of HCMV reactivation after allogenic BMT
Text: FIGS. 6A through 6D. IL-6 inhibition with tocilizumab reduces human CMV (HCMV) reactivation in clinical allogenic bone marrow transplantation (BMT) recipients. Participants of a phase 3 clinical trial who were enrolled at Royal Brisbane and Women’s Hospital and were at-risk of HCMV reactivation were included for analysis (n = 85). These patients were either seropositive for HCMV (R^+) or received grafts from seropositive donors (D^+). FIGS. 6A to 6C. Cumulative incidence of any detectable HCMV reactivation after BMT in at-risk patients. Solid lines represent the tocilizumab (TCZ) group and broken lines represent the placebo control group. FIG. 6A. HCMV reactivation in the total cohort (left) or the subset of patients with grade 0 - I acute graft versus host disease (aGVHD) (right). FIG. 6B. HCMV reactivation in all recipients of volunteer unrelated donor (VUD) grafts (left) or the subset of patients with grade 0 - I aGVHD (right). FIG. 6C. HCMV reactivation in all recipients of matched sibling donor (MSD) grafts (left) or those with grade 0 - I aGVHD (right). FIG. 6D. Distribution of HCMV serostatus (D^+R^-, D^+R^+ and D^-R^+) in recipients of MSD or VUD grafts.
(§3) FIGS. 11A through 11D. IL-6 inhibition with tocilizumab (TCZ) attenuates human CMV (HCMV) viremia after clinical BMT. FIG. 11A. Kinetics of HCMV viremia over time for placebo control versus TCZ groups. FIG. 11B (left). The number of PCR positive events of HCMV viremia plotted in (A) and depicted in the two patient cohorts. FIG. 11B (right). Distribution of HCMV reactivation in the patient cohorts receiving volunteer unrelated donor (VUD) grafts. FIG. 11C. Plasma concentration of MCP-1 at day + 60 after bone marrow transplantation (BMT) in patients was quantified and shown in relation to HCMV reactivation (≥ 600 copies/µL) and TCZ treatment. FIG. 11D. Pair-wise comparison of MCP-1 from day + 30 to + 60 in patients without (left) or with (right) significant CMV reactivation (≥ 600 copies/µL) in the placebo group. *P < 0.05; ****P < 0.0001.
as §1
HCMV monitoring. CMV viral load was monitored using the COBAS® Amplicor CMV Monitor test (Roche Diagnostics, Basel, Switzerland) as previously described (Tey SK, Kennedy GA, Cromer D, Davenport MP, Walker S, Jones LI, et al. Clinical assessment of anti-viral CD8+ T cell immune monitoring using QuantiFERON-CMV® assay to identify high risk allogeneic hematopoietic stem cell transplant patients with CMV infection complications. PloS one. 2013, 8(10), e74744). Cumulative incidence of any detectable HCMV viremia is plotted up to day + 100 after BMT and HCMV is censored at day + 100 of BMT or the time of death if this occurred prior to day 100.
Statistics. Results are presented as median ± interquartile range and the Mann-Whitney U test was used for comparisons. Wilcoxon test is conducted for pair-wise comparisons. Ordinary least-squares method was used in the linear or semi-log regression analysis. A two-sided P value of 0.05 was considered statistically significant. […]

[5] = system: CD19+ B cells; assay: B cell subsets and B cell counts in peripheral blood after clinical BMT
Description: as §2
FIGS. 12A through 12B. The effects of IL-6 inhibition with tocilizumab (TCZ) on B cell recovery following clinical BMT. FIG. 12A. B cell counts in peripheral blood in at-risk patients at day + 30 and + 60 after BMT. FIG. 12B. B cell counts in peripheral blood at day + 60 after bone marrow transplantation (BMT), classified into 4 groups based on the TCZ administration and the presence of acute graft versus host disease (aGVHD).
Furthermore, there was no difference in the memory phenotypes of CD4^+ and CD8^+ T cells between placebo and TCZ treated patients (FIGS. 7E - 7F). The inventors also analyzed CD19^+ B cells in available samples (n = 19 for Ctrl and n = 17 for TCZ).

[6] = system: MCP-1; assay: plasma MCP-1 in phase III BMT patients; settings: day 60 after BMT
Text: as §3
Flow cytometry. Antibody stained single-cell suspensions were analyzed on an LSR Fortessa™ cytometer in Australia or a FACSymphony™ A3 in Seattle USA (Becton Dickinson) and data are processed using FlowJo version 10 (Tree Star). Cytokines levels in the plasma were determined with the BD Cytometric Bead Array system (BD Biosciences).
Furthermore, high level HCMV reactivation (≥ 600 copies/ul) was associated with a greater increase in MCP-1 between day + 30 and + 60 than seen in patients with low level reactivation (FIG. 11D). […]

tocilizumab
rates of significant HCMV reactivation requiring preemptive therapy (> 600 copies/µL) [1]: low rates
effect on HCMV-IgG titers by graft type ([2]; day +30 plasma, VUD subset): predominantly observed in recipients of VUD grafts
HCMV-IgG in day +30 plasma ([2]; seropositive recipients (D-R+ and D+R+), TCZ vs placebo): higher
frequency of cytokine-producing CD8+ T cells ([3]; day +60 PBMC, HCMV peptide stimulation, TCZ vs placebo): did not have any significant effect
frequency of HCMV-tetramer+CD8+ T cells ([3]; day +60 PBMC, TCZ (n = 21) vs placebo (n = 29)): did not have any significant effect
memory phenotypes of CD4+ and CD8+ T cells ([3]; placebo vs TCZ treated patients): no difference
benefit from treatment by serostatus ([4]; HCMV seropositive patients receiving seronegative grafts (D-R+)): maximum benefit
HCMV viremia ([4]; TCZ vs placebo, at-risk patients (n = 85)): a trend towards lower HCMV viremia
HCMV reactivation, TCZ versus placebo ([4]; recipients of matched sibling donor grafts): no difference
protection on HCMV reactivation ([4]; recipients of volunteer unrelated donor (VUD) grafts, independent of acute GVHD): most profound
cumulative incidence of HCMV reactivation ([4]; total cohort, TCZ vs placebo, independent of acute GVHD): a trend towards lower cumulative incidence
absolute numbers of B cells in blood ([5]; day +30 or +60, presence or absence of TCZ): not different
B cell suppression in patients with grade II-IV acute GVHD ([5]; day +60): did appear to mitigate
frequencies of IgD+CD27- naïve B cells, IgD-CD27+ mature B cells or CD38hi plasmablasts ([5]; n = 19 Ctrl, n = 17 TCZ): did not impact
increase of plasma MCP-1 with HCMV reactivation (≥ 600 copies/ul) [6]: not observed
